pIC50: −log10 of the molar value.
How the values were obtained:
[1] = Inhibition of yeast Ero1p by fluorescence assay; set-up: species or system Saccharomyces cerevisiae
[2] = biological target: T1, ERO1-like protein alpha (Homo sapiens, UniProt Q96HE7); experiment: Inhibition of human Ero1-Lalpha
T1 sequence (Q96HE7 whole entry): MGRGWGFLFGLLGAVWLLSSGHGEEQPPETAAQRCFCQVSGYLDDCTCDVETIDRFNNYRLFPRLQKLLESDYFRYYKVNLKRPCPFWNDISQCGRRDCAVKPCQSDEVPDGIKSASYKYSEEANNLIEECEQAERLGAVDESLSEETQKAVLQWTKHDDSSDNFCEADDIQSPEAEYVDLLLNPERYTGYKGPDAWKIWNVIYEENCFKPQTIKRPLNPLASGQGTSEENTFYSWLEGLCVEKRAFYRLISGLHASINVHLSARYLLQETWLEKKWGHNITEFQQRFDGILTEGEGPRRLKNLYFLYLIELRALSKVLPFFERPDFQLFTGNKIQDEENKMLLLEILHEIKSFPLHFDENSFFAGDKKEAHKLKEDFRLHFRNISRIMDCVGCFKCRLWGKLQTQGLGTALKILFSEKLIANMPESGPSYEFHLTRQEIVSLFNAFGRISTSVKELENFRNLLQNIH

Row | Compound | pIC50 [1] | pIC50 [2]
1 | COc1cc(/C=C2\C(=O)NN(c3ccc(Br)cc3)C2=O)cc(Br)c1OC(C)=O | 4.51 | 5.52
2 | COc1cc(Cl)cc(/C=C2\C(=O)NN(c3ccc(F)c(Cl)c3)C2=O)c1O | – | 4.42
3 | COc1ccc(/C=C2/C(=O)N(c3ccc(Cl)cc3)N=C2C(F)(F)F)cc1OC | 4.14 | 5.10
4 | COc1cc(/C=C2/N=C(c3ccc4ccccc4c3)OC2=O)ccc1OC(C)=O | – | 4.27
5 | O=C(Nc1sc(-c2ccccc2)cc1C(=O)O)c1ccc(Br)cc1 | – | 4.17
6 | O=C(N/N=C1\C(=O)N(Cc2cccc([N+](=O)[O-])c2)c2ccccc21)c1cc2ccccc2cc1O | – | 3.97
7 | O=C(Cn1cnc([N+](=O)[O-])c1[N+](=O)[O-])Nc1cc(Oc2ccccc2)cc([N+](=O)[O-])c1 | < 3.52 | 5.00
8 | O=C(Nc1cc2c(cc1C(=O)O)C(=O)c1ccccc1C2=O)c1ccc([N+](=O)[O-])cc1 | – | 4.43
9 | O=C1NC(=O)N(c2ccc(Cl)cc2)C(=O)/C1=C/c1ccc(O)c(O)c1 | – | 4.96
10 | CCOc1cc(/C=C2\C(=O)NC(=O)N(c3ccc(C)cc3)C2=O)ccc1OCCOc1cccc2ccccc12 | – | 4.77
11 | COc1ccc(N2C(=O)NC(=O)/C(=C\c3ccc(OCCOc4cccc(OC)c4)c(OC)c3)C2=O)cc1 | – | 4.62
12 | O=C1NC(=O)N(c2ccc(Cl)cc2)C(=O)/C1=C/Nc1cccc(O)c1 | – | 4.10

Source: ChEMBL document CHEMBL1667849, “Identification of small molecular inhibitors for Ero1p by structure-based virtual screening” (Bioorg Med Chem Lett, 2011)
